Experiments:
[1] = molecular target: liver acetaldehyde dehydrogenase; test: Inhibition of liver acetaldehyde dehydrogenase (I50); type: biochemical; details: bovine liver enzyme, propionaldehyde substrate, NAD, pH 9.6, 26.0 °C, 15 minutes; read-out: I50 values (molar concentration for 50% inhibition) for inhibition of liver acetaldehyde dehydrogenase
Excerpt: The specific activity of the partially purified enzyme preparation was 172 units per milligram of protein. The assay system contained 30μ moles of sodium pyrophosphate buffer with a final pH of 9.6, 135μ moles of propylene glycol to serve as a vehicle for the compound being tested, 0.5μ mole of propionaldehyde, 1μ mole of nicotinamide adenine dinucleotide and 120 units of enzyme to initiate the reaction in a total volume of 3.0 milliliters. The assay mixture was contained in 1 centimeter silica cuvettes. The reaction was followed by measuring the increase in optical density at 340 mμ with time on the Beckman du spectrophotometer which was equipped with dual thermospacers set to maintain the temperature of the cell compartment at 26.0 ± 0.1° C. by means of a circulating water bath (Haake Thermostat F, Berlin). Readings of optical density were taken each minute for 15 minutes. The optical density at 15 minutes corrected for optical density at zero time was used to calculate percent inhibition compared with controls which contained all constituents except the compound being tested. Fifty percent inhibition values (I50) were determined from first order reaction plots at multiple levels of the tested compound. Sodium pyrophosphate changes pH when diluted with the other reaction constitutents in water; so, this effect was compensated for to bring the final pH of the incubation mixture to 9.6.

[2] = man and animals; cited from earlier work
aldehyde dehydrogenase = details: cited from earlier work; for effectiveness compared with disulfiram: evaluation said to considerably underestimate effectiveness
E. criceti = details: cited from earlier work
[3] = tested on: antispermatogenic activity; details: cited from earlier work
[4] = tested on: antispermatogenic activity; details: Coulston et al.; Surrey U.S. Pat. No. 3,143,566; cited from earlier work
spermatogenesis = details: cited from earlier work

Work on `O=C(NCCCCCCCCNC(=O)C(Cl)Cl)c1ccc(Cl)cc1` [Example B-1, N-(dichloroacetyl)-N'-(4-chlorobenzoyl)-1,8-octanediamine] yielded an IC50 [1] of 2700 nM.
In the case of `O=C(NCCCCCCCCNC(=O)C(Cl)Cl)c1ccc(Cl)c(Cl)c1` [Example B-2, N-(Dichloroacetyl)-N'-(3,4-dichlorobenzoyl)-1,8-octanediamine], the IC50 [1] is reported as 820 nM.
For `CCN(Cc1ccc(CN(CC)C(=O)C(Cl)Cl)cc1)C(=O)C(Cl)Cl` [Win 13,099, N,N'-bis(dichloroacetyl)-N,N'-diethyl-1,4-bis(aminomethyl)benzene], the side effect [2] is given as “a reaction to ethanol in man and animals” and the “effectiveness compared with disulfiram” value (aldehyde dehydrogenase) is given as “about as effective as disulfiram”.
For `O=C(NCCCCCCCCNC(=O)C(Cl)Cl)C(Cl)Cl` [Win 18,466, N,N'-Bis(dichloroacetyl)-1,8-octanediamine], the “in vivo amebicidal activity against E. criceti in hamsters” value (E. criceti) is listed as “not to have in vivo amebicidal activity”, the “antispermatogenic activity in rats” value [3] is listed as “to have antispermatogenic activity in rats” and the antispermatogenic activity [4] is listed as “highly antispermatogenically-active”. The “suppression of spermatogenesis in man” value (spermatogenesis) was “to suppress spermatogenesis in man”, the side effect [2] was “a reaction to ethanol in man and animals” and the “inhibitor of aldehyde dehydrogenase” value (aldehyde dehydrogenase) was “to be an inhibitor of aldehyde dehydrogenase”. For the same molecule, the “effectiveness compared with disulfiram” value (aldehyde dehydrogenase) was “about as effective as disulfiram”.
`CCN(CC)C(=S)SSC(=S)N(CC)CC` [disulfiram, bis(diethylthiocarbamoyl) disulfide] showed an IC50 [1] of 13000 nM.

— US4113774A, “N-(Dichloroacetyl) diamine compounds and process of preparing same” (Sterling Drug Inc., priority 1977, dated 1978)
